Experimental data as given in patent US11180462B2, “Microbiocidal oxadiazole derivatives” (SYNGENTA PARTICIPATIONS AG, priority 2015, dated 2021).

Key:
[1] = tested on: Puccinia recondita f. Sp. Tritici; assay: Fungicidal activity against Puccinia recondita f. sp. tritici / wheat / leaf disc curative (brown rust); format: in vivo; conditions: foliar, 24 h, 200 ppm in the applied formulation, wheat leaf segments, curative (applied 1 day after inoculation), compared to untreated control leaf disks, read-out: disease control
Protocol: Leaf disks or leaf segments of various plant species are cut from plants grown in a greenhouse. The cut leaf disks or segments are placed in multiwell plates (24-well format) onto water agar. The leaf disks are sprayed with a test solution before (preventative) or after (curative) inoculation. Compounds to be tested are prepared as DMSO solutions (max. 10 mg/ml) which are diluted to the appropriate concentration with 0.025% Tween20 just before spraying. The inoculated leaf disks or segments are incubated under defined conditions (temperature, relative humidity, light, etc.) according to the respective test system. A single evaluation of disease level is carried out 3 to 14 days after inoculation, depending on the pathosystem. Percent disease control relative to the untreated check leaf disks or segments is then calculated.
Fungicidal Activity Against Puccinia recondita f. Sp. Tritici/Wheat/Leaf Disc Curative (Brown Rust)
Wheat leaf segments cv. Kanzler are placed on agar in multiwell plates (24-well format). The leaf segments are then inoculated with a spore suspension of the fungus. Plates were stored in darkness at 19° C. and 75% relative humidity. The formulated test compound diluted in water was applied 1 day after inoculation. The leaf segments were incubated at 19° C. and 75% relative humidity under a light regime of 12 hours light/12 hours darkness in a climate cabinet and the activity of a compound was assessed as percent disease control compared to untreated when an appropriate level of disease damage appears in untreated check leaf segments (6 to 8 days after application).
The following compounds at 200 ppm in the applied formulation give at least 80% disease control in this test when compared to untreated control leaf disks under the same conditions, which show extensive disease development.

[2] = tested on: Glomerella lagenarium (Colletotrichum lagenarium); assay: Fungicidal activity against Glomerella lagenarium (Colletotrichum lagenarium) liquid culture / cucumber / preventative (anthracnose); format: cell-based; conditions: Colletotrichum orbiculare; 20 ppm in the applied formulation; liquid culture (PDB), growth inhibition measured photometrically after 3 to 4 days; compared to untreated control; read-out: disease control
How it was run: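 Photometric read-out of fungal growth after 2–7 days, expressed as percent antifungal activity versus untreated check. Cryo-stored conidia in PDB; compound at 20 ppm; dark, 24 °C, 96% RH.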

[3] = tested on: Puccinia recondita f. Sp. Tritici; assay: Fungicidal activity against Puccinia recondita f. sp. tritici / wheat / leaf disc preventative (brown rust); format: in vivo; conditions: foliar, 200 ppm in the applied formulation, wheat leaf segments, preventative, compared to untreated control leaf disks, read-out: disease control
How it was run: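 Preventative leaf-segment test, wheat cv. Kanzler on water agar. Spray compound at 200 ppm, inoculate with spores 1 day later; 19° C., 75% rh, 12/12 h light. Read-out: % disease control vs untreated, 7 to 9 days after application.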

Structure (SMILES)	pest or weed control at 200 ppm [1] [%]	inhibition of growth at 20 ppm [2] [%]	pest or weed control at 200 ppm [3] [%]
C#CCC(NS(=O)(=O)CC)C(=O)N(Cc1ccc(-c2noc(C(F)(F)F)n2)cc1)C1CC1 (centres unmarked) [Compound 1.137, N-cyclopropyl-2-(ethylsulfonylamino)-N-[[4-[5-(trifluoromethyl)-1,2,4-oxadiazol-3-yl]phenyl]methyl]pent-4-ynamide]	≥ 80	–	–
C#CCN(Cc1ccc(-c2noc(C(F)(F)F)n2)cc1)C(=O)CCc1ccc(Cl)cc1 [Compound 1.160, 3-(4-chlorophenyl)-N-prop-2-ynyl-N-[[4-[5-(trifluoromethyl)-1,2,4-oxadiazol-3-yl]phenyl]methyl]-propanamide]	≥ 80	–	–
CCCC(C)(C)C(=O)N(Cc1ccc(-c2noc(C(F)(F)F)n2)cc1)CC1CC1 [Compound 1.204, N-(cyclopropylmethyl)-2,2-dimethyl-N-[[4-[5-(trifluoromethyl)-1,2,4-oxadiazol-3-yl]phenyl]methyl]-pentanamide]	≥ 80	–	–
CC(=O)N1CCCC1C(=O)N(Cc1ccc(-c2noc(C(F)(F)F)n2)cc1)CC1CCCO1 (centres unmarked) [Compound 1.444, 1-acetyl-N-(tetrahydrofuran-2-ylmethyl)-N-[[4-[5-(trifluoromethyl)-1,2,4-oxadiazol-3-yl]phenyl]methyl]-pyrrolidine-2-carboxamide]	≥ 80	–	–
CC(=O)NCC(=O)N(Cc1ccc(-c2noc(C(F)(F)F)n2)cc1)OCC=C(Cl)Cl [Compound 1.537, 2-acetamido-N-(3,3-dichloroallyloxy)-N-[[4-[5-(trifluoromethyl)-1,2,4-oxadiazol-3-yl]phenyl]methyl]-acetamide]	–	≥ 80	≥ 80
CCC(=O)N(Cc1ccc(-c2noc(C(F)(F)F)n2)cc1)OCc1ccc(Cl)cc1 [Compound 1.550, N-[(4-chlorophenyl)-methoxy]-N-[[4-[5-(trifluoromethyl)-1,2,4-oxadiazol-3-yl]phenyl]methyl]-propanamide]	–	≥ 80	≥ 80
CON(Cc1ccc(-c2noc(C(F)(F)F)n2)cc1F)C(=O)c1ccccc1Cl [Compound 1.565, 2-chloro-N-[[2-fluoro-4-[5-(trifluoromethyl)-1,2,4-oxadiazol-3-yl]phenyl]methyl]-N-methoxy-benzamide]	–	≥ 80	≥ 80
CON(Cc1c(F)cc(-c2noc(C(F)(F)F)n2)cc1F)C(=O)c1ccccc1Cl [Compound 1.598, 2-chloro-N-[[2,6-difluoro-4-[5-(trifluoromethyl)-1,2,4-oxadiazol-3-yl]phenyl]methyl]-N-methoxy-benzamide]	–	≥ 80	≥ 80
CCCCON(Cc1ccc(-c2noc(C(F)(F)F)n2)cc1)C(=O)COC [Compound 1.602, N-butoxy-2-methoxy-N-[[4-[5-(trifluoromethyl)-1,2,4-oxadiazol-3-yl]phenyl]methyl]-acetamide]	–	≥ 80	≥ 80
CC#CCOC(=O)N(Cc1ccc(-c2noc(C(F)(F)F)n2)cc1)OC [Compound 2.7, but-2-ynyl N-methoxy-N-[[4-[5-(trifluoromethyl)-1,2,4-oxadiazol-3-yl]phenyl]methyl]-carbamate]	–	≥ 80	≥ 80
CON(Cc1ccc(-c2noc(C(F)(F)F)n2)cc1)C(=O)N1CCCO1 [Compound 3.66, N-methoxy-N-[[4-[5-(trifluoromethyl)-1,2,4-oxadiazol-3-yl]phenyl]methyl]-isoxazolidine-2-carboxamide]	–	≥ 80	≥ 80
C#CCN(C)C(=O)N(CC)Cc1ccc(-c2noc(C(F)(F)F)n2)cc1 [Compound 3.96, 1-ethyl-3-methyl-3-prop-2-ynyl-1-[[4-[5-(trifluoromethyl)-1,2,4-oxadiazol-3-yl]phenyl]methyl]urea]	–	≥ 80	≥ 80
